The values that follow come from ChEMBL document CHEMBL4840358, “Discovery of Modified Amidate (ProTide) Prodrugs of Tenofovir with Enhanced Antiviral Properties” (J Med Chem, 2021).

A word on the CC50: it is the concentration giving 50% cytotoxicity. A word on the EC50: it is the midpoint of the concentration-response curve.

Data set [1] in a line: Selectivity index, ratio of CC50 for human MT-4 cells to EC50 for HIV-1 infected in MT-4 cells. The class given is toxicity, cell-based. The note with it: read-out: Ratio CC50/EC50.
Data set [2] is described as follows: Cytotoxicity against in human MT4 cells after 5 days by XTT assay. The note with it: time 5 day. The class given is cell-based.
In data set [3] the test system is Human immunodeficiency virus 1. In words: Antiviral activity against HIV-1 infected in MT4 cells assessed as reduction in virus-induced cytopathic effect preincubated for 1 hr followed by viral infection and measured after 5 days by XTT assay. In kind it is functional, organism-based. The conditions noted are these: Human immunodeficiency virus 1, MT4. A general note: Protection from cytopathic effect is a common read-out in antiviral testing.

The nature of data set [4]: Drug uptake in human CCRF-CEM cells assessed as intracellular intact prodrug level at 50 uM after 45 mins by ECHO-MS analysis. In kind it is ADME, cell-based. The conditions noted are these: 0.75 h.
Data set [5] in a line: Stability of compound in pooled human hepatic microsomes assessed as compound remaining at 5 uM measured upto 30 mins in presence of NADPH by ECHO-MS analysis. The class given is ADME, Microsome. The note with it: pooled liver microsomes, read-out: Stability. For orientation: Liver microsomes are a subcellular fraction often used to study metabolism.
Data set [6] concerns the target T1, Lysosomal protective protein (Homo sapiens) (UniProt P10619).
T1 sequence (whole entry): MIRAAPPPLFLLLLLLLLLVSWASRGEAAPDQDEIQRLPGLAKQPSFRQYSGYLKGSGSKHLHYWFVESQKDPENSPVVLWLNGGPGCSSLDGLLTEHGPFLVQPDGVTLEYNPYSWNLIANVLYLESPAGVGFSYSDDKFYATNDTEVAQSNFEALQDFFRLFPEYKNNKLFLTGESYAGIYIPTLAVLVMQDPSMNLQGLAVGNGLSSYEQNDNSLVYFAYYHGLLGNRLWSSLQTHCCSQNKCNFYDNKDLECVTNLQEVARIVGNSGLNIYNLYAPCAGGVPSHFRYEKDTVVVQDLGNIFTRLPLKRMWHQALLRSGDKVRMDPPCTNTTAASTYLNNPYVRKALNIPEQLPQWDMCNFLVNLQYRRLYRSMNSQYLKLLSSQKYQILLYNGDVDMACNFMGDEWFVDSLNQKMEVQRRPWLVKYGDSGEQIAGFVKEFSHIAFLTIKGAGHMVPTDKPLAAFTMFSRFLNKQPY
In words: Substrate activity at cathepsin A (unknown origin) at 30 uM after 30 mins.

Data set [7] in a line: Drug uptake in human CCRF-CEM cells assessed as released tenofovir level at 50 uM after 45 mins by ECHO-MS analysis. The class given is ADME, cell-based. The note with it: 0.75 h.
The nature of data set [8]: Stability of compound in pooled human plasma assessed as compound remaining at 5 uM measured for 120 to 240 mins by ECHO-MS analysis. The class given is ADME, cell-free. The note with it: time 120-240 min, read-out: Stability.
Data set [9] in a line: Cytotoxicity against human HepG2-hNTCP cells incubated for 3 days by XTT assay. In kind it is cell-based. The note with it: time 3 day. On the technique in general: Tetrazolium assays rely on reduction of a dye to a coloured formazan, in cell work by metabolically active cells.
The test system of the next data set is Hepatitis B virus. In words: Antiviral activity against HBV infected in human HepG2-hNTCP cells assessed as reduction in HBV DNA incubated for day 1 followed by compound washout and fresh compound addition on following day and day 3, 6 and 10 measured on day 14 post infection by qPCR analysis. In kind it is functional, organism-based.

Take `CC(C)OC(=O)[C@H](C)N[P@](=O)(CO[C@H](C)Cn1cnc2c(N)ncnc21)Oc1ccc(C[C@H](NC(=O)OCc2ccccc2)C(=O)OC(C)C)cc1`: the selectivity ratio in [1] turned out to be 16700. Besides, the CC50 at 120 h in data set [2] stood at 10000 nM. The EC50 in data set [3] worked out at 0.6 nM.
In the case of `CC(C)OC(=O)[C@H](C)N[P@](=O)(CO[C@H](C)Cn1cnc2c(N)ncnc21)Oc1ccc(C[C@H](NCCCc2ccccc2)C(=O)CC2CCCC2)cc1`, the Drug uptake in data set [4] is given as 11.37 pmol; in data set [7], 304.5 pmol. Besides, in [5], the remaining at 0.5 h, 5 µM was 1%. In [6], this molecule returned an Activity of 16.3 pmol/min/mg. In [1], the selectivity ratio amounted to 800000. For the same molecule, the 50% cytotoxic concentration (CC50) at 120 h in [2] worked out at 48000 nM. The EC50 in [3] turned out to be 0.06 nM. The remaining at 5 µM in data set [8] turned out to be 77%.
With `CC(C)OC(=O)[C@H](C)N[P@@](=O)(CO[C@H](C)Cn1cnc2c(N)ncnc21)Oc1ccc(C[C@H](NC(=O)OCc2ccccc2)C(=O)CC2CCCC2)cc1`, the figures for the Drug uptake in [4] and in data set [7] were 248 pmol and 78.88 pmol, respectively. Further, the Activity in data set [6] worked out at 30.3 pmol/min/mg. In data set [9], this molecule yielded a CC50 at 72 h of more than 50000 nM. The molecule also returned a CC50 at 120 h in data set [2] of 7600 nM. Besides, the EC50 in [3] amounted to 0.15 nM; in the data set with Hepatitis B virus it was 3.4 nM.
Turning to `CC(C)OC(=O)[C@H](C)N[P@](=O)(CO[C@H](C)Cn1cnc2c(N)ncnc21)Oc1ccc(C[C@H](NC(=O)CCc2ccccc2)C(=O)OC2CCCC2)cc1`, the values for the Drug uptake in data set [4] and in data set [7] were 0.37 pmol and 64.26 pmol, respectively. In addition, in data set [5], the remaining at 0.5 h, 5 µM was 0.01%. For the same molecule, the Activity in [6] was found to be 26 pmol/min/mg. Besides, the selectivity ratio in data set [1] was 880000. This molecule had a CC50 at 72 h in data set [9] of more than 50000 nM. The same molecule registered a half-maximal cytotoxic concentration (CC50) at 120 h in [2] of 8800 nM. In addition, the EC50 in data set [3] came to 0.01 nM; with Hepatitis B virus, 4.4 nM. For the same molecule, the remaining at 5 µM in data set [8] turned out to be 76%.
Turning to `CC(C)OC(=O)[C@H](C)N[P@](=O)(CO[C@H](C)Cn1cnc2c(N)ncnc21)Oc1ccc(C[C@H](NCCCc2ccccc2)C(=O)OC2CCCC2)cc1`, the selectivity ratio in data set [1] came to 21400. In data set [9], this molecule had a CC50 at 72 h of more than 50000 nM. For the same molecule, it took 6000 nM to reach half-maximal cytotoxicity in data set [2] (CC50 at 120 h). The EC50 in data set [3] was determined as 0.28 nM; in the data set with Hepatitis B virus it was 19 nM.
Take `CC(C)OC(=O)[C@H](C)N[P@@](=O)(CO[C@H](C)Cn1cnc2c(N)ncnc21)Oc1ccc(C[C@H](NC(=O)CCc2ccccc2)C(=O)OC2CCCC2)cc1`: the Drug uptake in data set [4] was 0.12 pmol; in [7], 27.89 pmol. The Activity in data set [6] worked out at 29.5 pmol/min/mg. Also, in data set [9], the CC50 at 72 h is more than 50000 nM. This molecule also showed a half-maximal cytotoxic concentration (CC50) at 120 h in data set [2] of 11000 nM. For the same molecule, the results for the EC50 (in [3]; in the data set on Hepatitis B virus) were 0.36 nM and 1.4 nM, respectively.
`CC(C)CCOC(=O)[C@H](Cc1ccc(O[P@@](=O)(CO[C@H](C)Cn2cnc3c(N)ncnc32)N[C@@H](C)C(=O)OC(C)C)cc1)NC(=O)OCc1ccccc1`: the selectivity ratio in data set [1] worked out at 14300. Besides, the midpoint of cytotoxicity in data set [2], the CC50 at 120 h, lay at 8000 nM. Besides, in data set [3], the EC50 is 0.56 nM.
In [6], `CC(C)OC(=O)[C@H](C)N[P@](=O)(CO[C@H](C)Cn1cnc2c(N)ncnc21)Oc1ccc(C[C@H](NC(=O)OCc2ccccc2)C(=O)OC2CCCC2)cc1` yielded an Activity of 33.6 pmol/min/mg.
Consider `CC(C)OC(=O)[C@H](C)N[P@@](=O)(CO[C@H](C)Cn1cnc2c(N)ncnc21)Oc1ccc(C[C@@H](NC(=O)OCc2ccccc2)C(=O)OC2CCCC2)cc1`, for which the selectivity ratio in data set [1] is 45500. For the same molecule, it took 15000 nM to reach half-maximal cytotoxicity in [2] (CC50 at 120 h). Also, in data set [3], the 50% effective concentration (EC50) is 0.33 nM.
As for `CC(C)OC(=O)[C@H](C)N[P@](=O)(CO[C@H](C)Cn1cnc2c(N)ncnc21)Oc1ccc(C[C@H](NC(=O)OCc2ccccc2)C(=O)NC2CCCC2)cc1`, in data set [1], the selectivity ratio was 2150. This molecule registered a CC50 at 120 h in [2] of 28000 nM. Besides, the EC50 in data set [3] was 13 nM.
In the case of `CC(C)OC(=O)[C@H](C)NP(=O)(CO[C@H](C)Cn1cnc2c(N)ncnc21)Oc1ccc(C[C@H](NC(=O)OCc2ccccc2)C(=O)OC2CCCC2)cc1` (some centres undefined), the 50% cytotoxic concentration (CC50) at 72 h in [9] is more than 50000 nM. In addition, in data set [2], the midpoint of cytotoxicity, the CC50 at 120 h, lay at 8300 nM. The EC50 in data set [3] stood at 0.9 nM; in the data set with Hepatitis B virus, 0.7 nM.
